“Also recorded” adds a separate entry of the source.
What was measured:
Type in all cases: cell-based
[1] = system: HeLa cells; experiment: Toxicity approximately 18 hours after staining (bright-field microscopy); settings: live HeLa cells, 5 μM DRAQ5 or 20 μM Dye No. 1, 5 minutes at 37° C., then approximately 18 hours in fresh medium
Procedure: Dark spots are indicative of dead cells.
Live HeLa cells were treated with either 5 μM DRAQ5 or 20 μM Dye No. 1 in 1×PBS for 5 minutes at 37° C. The dye/PBS solution was removed and replaced with fresh Dulbecco/Vogt modified Eagle's minimal essential medium (DMEM) supplemented with bovine growth serum (BGS). The cells were incubated at 37° C. for approximately 18 hours, and observed under bright-field at 10× magnification (FIG. 2).

[2] = system: HeLa cells; experiment: Staining live cells with Dye No. 1 (fluorescence microscopy); settings: live adherent HeLa cells; 5 μM DRAQ5 or 10 μM Dye No. 1 in 1× PBS, 37° C., 5 minutes; CY5 filter
Procedure: Live, adherent HeLa cells grown in 12-well plates were treated with either 5 μM DRAQ5 or 10 μM of Dye No. 1 in 1× phosphate buffered saline (PBS). Cells were incubated at 37° C. for 5 minutes. Fluorescence was observed using an epifluorescence microscope with the CY5 filter.

[3] = system: HeLa cells; experiment: Staining of live (unfixed) HeLa cultures; selective staining of dead cells; settings: 1 uL of 500 uM dye stock in 100 uL medium, five minutes, room temperature
Procedure: HeLa cells were seeded at a density of 2×10^4 cells in 100 uL culture medium per well in tissue culture treated, optical bottom, black 96-well plates. One day after seeding, 1 uL of 500 uM dye stock in DMSO was added directly to the culture medium (100 uL) and mixed by trituration. The cells were incubated at room temperature for five minutes. The culture medium containing dye was removed and replaced by 100 uL phosphate buffered saline. Cellular fluorescence was imaged using an the Cy5 filter set of an Olympus IX71 epifluorescence microscope and a Q-Imaging Retiga 2000R Fast 1394 mono camera (FIG. 5). […] Probes that can selectively detect dead cells are useful in cell viability assays, which are widely practiced in drug screening.

[4] = system: HeLa cells; experiment: Normalizing or counting cell number; settings: HeLa cells seeded at several densities, fixed, permeabilized, stained one hour at room temperature; LI-COR Odyssey
Procedure: HeLa cells were counted/normalized using Dye No. 1. HeLa cells were seeded in 96-well—lates at several densities per well (as indicated on the x-axis of FIG. 7). After 24 hours, cells were fixed, permeabilized, and stained with the indicated dyes for one hour at room temperature according to the protocol provided by the supplier of the DRAQ5/Sapphire700 system. Fluorescence was quantitated using a LI-COR Odyssey system. HeLa cells seeded at 25,000 cells were confluent at the time of the assay.

[5] = system: rat skeletal muscle; experiment: Staining of tissue sections with Dye No. 7; settings: acetone-fixed frozen sections of rat skeletal muscle; 10 uM, five minutes, room temperature
Procedure: Acetone-fixed frozen sections of rat skeletal muscle were purchased from Biochain Institute Inc. (Hayward, Calif.). Sections were rinsed in phosphate buffered saline and stained with 10 uM Dye No. 7 and 5 units/mL CF488A-phalloidin (Biotium Inc, Hayward, Calif.) for five minutes at room temperature. Sections were rinsed twice in phosphate buffered saline and mounted with EverBrite mounting medium (Biotium, Inc, Hayward, Calif.). Tissue fluorescence was imaged using the FITC and Cy5 filter sets of an Olympus IX71 epifluorescence microscope and a Q-Imaging Retiga 2000R Fast 1394 mono camera (FIG. 4).

[6] = system: HeLa cells; experiment: Staining of fixed and permeabilized cells; settings: HeLa fixed with 4% paraformaldehyde, 0.5% Triton X-100; 3 μM DRAQ7 or 10 μM dye, 5 minutes, room temperature
Procedure: Adherent HeLa cells in 12-well plates were fixed with 4% paraformaldehyde for 15 minutes at room temperature. Cells were then permeabilized with 0.5% Triton X-100 for 10 minutes at room temperature. Three micromolar (3 μM, the manufacturer's recommended concentration) DRAQ7 or 10 μM Dye No. 7, 13, or 15 were added to the fixed and permeabilized cells in 1×PBS and incubated for 5 minutes at room temperature. The dye/PBS solution was removed and replaced with fresh 1×PBS. Fluorescence was observed using an epifluorescence microscope with the CY5 filter (FIG. 3).

For `CN(C)CCNc1ccc(O)c2c1C(=O)c1c(O)ccc(NCCN(C)C)c1C2=O` [Draq5, reference compound], the “toxicity (cell death) after staining” value [1] was “more cell death than that with Dye No. 1” and the “nuclear staining of live cells” value [2] was “stained the nuclei of live cells with high specificity; also recorded: stained the nuclei of live cells specifically”.
With `CN(C)CCNc1ccc(O)c2c1C(=O)c1c(O)ccc(NCCNC(=O)C3CCCN3)c1C2=O` (centres unmarked) [Dye No. 1] the “staining of live versus dead cells in live (unfixed) culture” value [3] was “stained the nuclei of all cells”, the “toxicity (cell death) after staining” value [1] was “caused fewer cell deaths than Draq5 even at a much higher concentration; also recorded: much less toxic than Draq5” and the “fluorescence versus number of cells stained” value [4] was “linear with the number of cells stained”. The “nuclear staining of live cells” value [2] was “stained the nuclei of live cells with high specificity; also recorded: stained the nuclei of live cells specifically”.
`CN(C)CCNc1ccc(O)c2c1C(=O)c1c(O)ccc(NCCNC(=N)CCCCC(=N)NCCNc3ccc(O)c4c3C(=O)c3c(O)ccc(NCCN(C)C)c3C4=O)c1C2=O` [Dye No. 7] was tested, and the “staining of live versus dead cells in live (unfixed) culture” value [3] was “selectively stained the nuclei of dead cells only”, the “nuclear staining specificity in tissue” value [5] was “excellent nuclear specificity” and the “nuclear staining specificity in fixed and permeabilized cells” value [6] was “much more specific in nuclear staining than Draq7; also recorded: stained cell nuclei specifically”.
`O=C1c2c(O)ccc(NCCNC3=NCCN3)c2C(=O)c2c(O)ccc(NCCNC3=NCCN3)c21` [Dye No. 13] was tested, and the “nuclear staining specificity in fixed and permeabilized cells” value [6] was “much more specific in nuclear staining than Draq7”.
For `CC(=N)NCCNc1ccc(O)c2c1C(=O)c1c(O)ccc(NCCNC(C)=N)c1C2=O` [Dye No. 15], the “nuclear staining specificity in fixed and permeabilized cells” value [6] was “much more specific in nuclear staining than Draq7; also recorded: stained cell nuclei specifically”.

Source: patent US9670363B2, “Substituted anthraquinone dyes for cellular stains and enzyme detection” (Biotium, Inc., priority 2011, dated 2017)
